# Experimental data published in patent US7718767B2, “3-ether and 3-thioether substituted cyclosporin derivatives for the treatment and prevention of hepatitis C infection” (Scynexis, Inc., priority 2006, dated 2010).
# What was measured:
# HCV RNA replicon ET = test: HCV RNA replicon luciferase reporter assay, antiviral activity; format: cell-based; conditions: ET replicon cells, 72 h, LUC activity; for EC50: concentration reducing viral replication by 50%; for EC90: concentration reducing viral replication by 90%
# [1] = system: human hepatoma cell line ET; test: Cytotoxicity in the replicon cell line, colorimetric assay of cell numbers; conditions: ET cells, 72 h; for IC50: read-out: Cytotoxicity IC50, concentration inhibiting cell viability by 50%; for IC90: read-out: Cytotoxicity IC90, concentration inhibiting cell viability by 90%
# Source text: Compounds were examined in the human hepatoma cell line ET (lub ubi heo/ET), a HCV RNA replicon containing a stable luciferase (LUC) reporter. The HCV RNA replicon ET contains the 5′ end of HCV (with the HCV Internal Ribosome Entry Site (IRES) and the first few amino acids of the HCV core protein) which drives the production of a firefly luciferase (LUC), ubiquitin, and neomycin phosphotransferase (NeoR) fusion protein. Ubiquitin cleavage releases the LUC and NeoR proteins. The EMCV IRES element controls the translation of the HCV […] NS3-NS5. The NS3 protein cleaves the HCV polyprotein to release the mature NS3, NS4A, NS4B, NS5A and NS5B proteins that are required for HCV replication. At the 3′ end of the replicon is the authentic 3′ NTR of HCV. The activity of the LUC reporter is directly proportional to HCV replication levels and positive-control antiviral compounds produce a reproducible antiviral response using the LUC endpoint.
# The compounds were dissolved in DMSO at five half-log concentrations each, ranging from either 0.02 to 2.0 μM, 0.03 to 3 μM, […], or 1 to 100 μM. Subconfluent cultures of the ET line were plated out into 96 well plates dedicated for the analysis of cell numbers (cytotoxicity) or antiviral activity and the next day the compounds were added to the appropriate wells. The cells were processed 72 h later when the cells were still subconfluent. […] The activity of the LUC reporter is directly proportional to HCV RNA levels in the human cell line. The HCV-replicon assay was validated in parallel experiments using interferon-alpha-2b as a positive control.
# HIV-1IIIB = test: HIV MTS cytoprotection assay in CEM-SS cells; format: cell-based, human immunodeficiency virus-1; conditions: 6 days post-infection, concentration inhibiting virus replication by 50%
# CEM-SS cells = test: Compound cytotoxicity in the HIV MTS assay (cells plus drug only); format: cell-based, human; conditions: 50% inhibition of cell growth
# Description: In this MTS cytoprotection assay, each experiment included cell control wells (cells only), virus control wells (cells plus virus), drug toxicity wells (cells plus drug only), drug colorimetric control wells (drug only) as well as experimental wells (drug plus cells plus virus). […] HIV-1RF was added to each well in a volume of 50 μL, the amount of virus determined to give approximately 90% cell killing at 6 days post-infection. At assay termination, assay plates were stained with the soluble tetrazolium-based dye MTS (CellTiter 96 Reagent, Promega) to determine cell viability and quantify compound toxicity. MTS is metabolized by the mitochondria enzymes of metabolically active cells to yield a soluble formazan product, providing a quantitative analysis of cell viability and compound cytotoxicity. The assay was validated in parallel experiments using Zidovudine (3′-azido-3′-deoxythymidine or AZT) as a positive control.
Compound,EC50 (HCV RNA replicon ET),EC90 (HCV RNA replicon ET),IC50 [1],IC90 [1],EC50 (HIV-1IIIB),IC50 (CEM-SS cells)
"C/C=C/C[C@@H](C)[C@@H](O)[C@H]1C(=O)N[C@@H](CC)C(=O)N(C)[C@H](OC(C)C)C(=O)N(C)[C@@H](CC(C)C)C(=O)N[C@@H](C(C)C)C(=O)N(C)[C@@H](CC(C)C)C(=O)N[C@@H](C)C(=O)N[C@H](C)C(=O)N(C)[C@@H](CC(C)C)C(=O)N(C)[C@@H](CC(C)C)C(=O)N(C)[C@@H](C(C)C)C(=O)N1C [D, 3-(isopropoxy)cyclosporin]",290 nM,1320 nM,17200 nM,> 20000 nM,1360 nM,> 20000 nM
"C/C=C/C[C@@H](C)[C@@H](O)[C@H]1C(=O)N[C@@H](CC)C(=O)N(C)[C@H](SCCOC)C(=O)N(C)[C@@H](CC(C)C)C(=O)N[C@@H](C(C)C)C(=O)N(C)[C@@H](CC(C)C)C(=O)N[C@@H](C)C(=O)N[C@H](C)C(=O)N(C)[C@@H](CC(C)C)C(=O)N(C)[C@@H](CC(C)C)C(=O)N(C)[C@@H](C(C)C)C(=O)N1C [R, 3-[(2-methoxy)ethylthio]cyclosporin]",310 nM,590 nM,11100 nM,> 20000 nM,500 nM,17300 nM
"C/C=C/C[C@@H](C)[C@@H](O)[C@H]1C(=O)N[C@@H](CC)C(=O)N(C)[C@H](SCCN(C)C)C(=O)N(C)[C@@H](CC(C)(C)O)C(=O)N[C@@H](C(C)C)C(=O)N(C)[C@@H](CC(C)C)C(=O)N[C@@H](C)C(=O)N[C@H](C)C(=O)N(C)[C@@H](CC(C)C)C(=O)N(C)[C@@H](CC(C)C)C(=O)N(C)[C@@H](C(C)C)C(=O)N1C [Compound O, 3-[(R)-2-(N,N-dimethylamino)ethylthio-Sar]-4-(gamma-hydroxymethylleucine)cyclosporin]",122 nM,300 nM,13400 nM,> 20000 nM,60 nM,20000 nM
"C/C=C/C[C@@H](C)[C@@H](O)[C@H]1C(=O)N[C@@H](CC)C(=O)N(C)C(OC)C(=O)N(C)[C@@H](CC(C)(C)O)C(=O)N[C@@H](C(C)C)C(=O)N(C)[C@@H](CC(C)C)C(=O)N[C@@H](C)C(=O)N[C@H](C)C(=O)N(C)[C@@H](CC(C)C)C(=O)N(C)[C@@H](CC(C)C)C(=O)N(C)[C@@H](C(C)C)C(=O)N1C (some centres unmarked) [Compound T, 3-(methoxy)-4-(gamma-hydroxymethylleucine)cyclosporin]",–,–,> 2000 nM,> 2000 nM,–,18000 nM
"C/C=C/C[C@@H](C)[C@@H](O)[C@H]1C(=O)N[C@@H](CC)C(=O)N(C)C(OCCCO)C(=O)N(C)[C@@H](CC(C)C)C(=O)N[C@@H](C(C)C)C(=O)N(C)[C@@H](CC(C)C)C(=O)N[C@@H](C)C(=O)N[C@H](C)C(=O)N(C)[C@@H](CC(C)C)C(=O)N(C)[C@@H](CC(C)C)C(=O)N(C)[C@@H](C(C)C)C(=O)N1C (some centres unmarked) [H, 3-(3-hydroxypropoxy)cyclosporin]",< 200 nM,370 nM,> 20000 nM,> 20000 nM,1380 nM,13300 nM
"C=CCS[C@@H]1C(=O)N(C)[C@@H](CC(C)C)C(=O)N[C@@H](C(C)C)C(=O)N(C)[C@@H](CC(C)C)C(=O)N[C@@H](C)C(=O)N[C@H](C)C(=O)N(C)[C@@H](CC(C)C)C(=O)N(C)[C@@H](CC(C)C)C(=O)N(C)[C@@H](C(C)C)C(=O)N(C)[C@@H]([C@H](O)[C@H](C)C/C=C/C)C(=O)N[C@@H](CC)C(=O)N1C [Q, 3-propenylthiocyclosporin]",210 nM,620 nM,18900 nM,> 20000 nM,230 nM,18900 nM
"C/C=C/C[C@@H](C)[C@@H](O)[C@H]1C(=O)N[C@@H](CC)C(=O)N(C)C(SC)C(=O)N(C)[C@@H](CC(C)(C)O)C(=O)N[C@@H](C(C)C)C(=O)N(C)[C@@H](CC(C)C)C(=O)N[C@@H](C)C(=O)N[C@H](C)C(=O)N(C)[C@@H](CC(C)C)C(=O)N(C)[C@@H](CC(C)C)C(=O)N(C)[C@@H](C(C)C)C(=O)N1C (some centres unmarked) [S, 3-(methylthio)-4-(gamma-hydroxymethylleucine)cyclosporin]",–,160 nM,> 2000 nM,> 2000 nM,90 nM,14000 nM
